Source: PMC7321065, “Discovery of New Schiff Bases Tethered Pyrazole Moiety: Design, Synthesis, Biological Evaluation, and Molecular Docking Study as Dual Targeting DHFR/DNA Gyrase Inhibitors with Immunomodulatory Activity” (Molecules, 2020)
≈ marks a conversion by molar mass, not a printed value. Like-named read-outs stand apart in the source and are kept apart here.

Tests used:
[1] = system: Bacillus subtilis; test: Inhibition zone, agar plate diffusion; assay type: cell-based; details: Bs, mm ± standard deviation, sample at 0.5 mg/mL, read-out: Inhibition zone (IZ)
Summary of the method: (§1)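 Compounds in DMSO, with DMSO as negative control, were tested at 0.5 mg/mL in agar wells cut 10 mm wide.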

[2] = system: Enterococcus faecalis; test: Inhibition zone, agar plate diffusion; assay type: cell-based; details: Ef, mm ± standard deviation, sample at 0.5 mg/mL, read-out: Inhibition zone (IZ)
Summary of the method: as §1

[3] = system: Escherichia coli; test: Inhibition zone, agar plate diffusion; assay type: cell-based; details: Ec, mm ± standard deviation, sample at 0.5 mg/mL, read-out: Inhibition zone (IZ)
Summary of the method: as §1

[4] = system: Pseudomonas aeruginosa; test: Inhibition zone, agar plate diffusion; assay type: cell-based; details: Pa, mm ± standard deviation, sample at 0.5 mg/mL, read-out: Inhibition zone (IZ)
Summary of the method: as §1

[5] = system: Bacillus subtilis; test: MIC/MBC, paper disk diffusion; assay type: cell-based; details: B. subtilis; for MBC: read-out: MBC
Summary of the method: (§2)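 MIC and MBC were obtained by paper disk diffusion, bacteria grown on nutrient agar and fungi/yeast on Sabouraud agar. MIC is the lowest concentration inhibiting growth.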

[6] = system: Enterococcus faecalis; test: MIC/MBC, paper disk diffusion; assay type: cell-based; details: E. faecalis; for MBC: read-out: MBC; for MIC: read-out: MIC
Summary of the method: as §2

[7] = system: Escherichia coli; test: MIC/MBC, paper disk diffusion; assay type: cell-based; details: E. coli; for MBC / MIC: Escherichia coli; for MBC: read-out: MBC; for MIC: read-out: MIC
Summary of the method: as §2

[8] = system: Pseudomonas aeruginosa; test: MIC/MBC, paper disk diffusion; assay type: cell-based; details: P. aeruginosa; for MBC / MIC: Pseudomonas aeruginosa; for MBC: read-out: MBC; for MIC: read-out: MIC
Summary of the method: as §2

[9] = system: Salmonella typhi; test: MIC/MBC, paper disk diffusion; assay type: cell-based; details: Salmonella enterica, S. typhi; for MBC: read-out: MBC
Summary of the method: as §2

[10] = system: Staphylococcus aureus; test: MIC/MBC, paper disk diffusion; assay type: cell-based; details: Staphylococcus aureus, S. aureus; for MBC: read-out: MBC; for MIC: read-out: MIC
Summary of the method: as §2

[11] = system: hepatocellular carcinoma cell line (HepG2); test: Antiproliferative activity, MTT assay; assay type: cell-based, human; details: Homo sapiens, HepG2; MTT, 48 h; read-out: IC50 HepG-2
Summary of the method: (§3)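 MTT added for 4 h, formazan dissolved in DMSO, absorbance at 590 nm. Viability relative to untreated cells; IC50 by probit analysis.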

[12] = system: mammary gland breast cancer cell line (MCF-7); test: Antiproliferative activity, MTT assay; assay type: cell-based, human; details: for IC50: Homo sapiens, MCF7, MTT, 48 h, read-out: IC50 MCF-7; for Fold relative to doxorubicin (IC50): MCF-7
Summary of the method: as §3

[13] = system: S. aureus ATCC 43300 (MRSA); test: Inhibition zone against MDRB, agar plate diffusion; assay type: cell-based
[14] = system: S. aureus ATCC 33591; test: Inhibition zone against MDRB, agar plate diffusion; assay type: cell-based
[15] = system: E. coli ATCC BAA-196; test: MIC/MBC against MDRB, paper disk diffusion; assay type: cell-based; details: Escherichia coli, ATCCBAA196, E. coli ATCC BAA-196; for MBC: read-out: MBC; for MIC: read-out: MIC
Text: (§4) The inhibition zone (IZ, mm±standard deviation) of pyrazole Schiff bases ( 6b, 7b, 7c, 8a, 8d and 9b) was
(§5) measurement according to the agar plate diffusion method against a panel of multidrug-resistant bacteria
(MDRB). […]

[16] = system: P. aeruginosa ATCC BAA-2111; test: MIC/MBC against MDRB, paper disk diffusion; assay type: cell-based; details: Pseudomonas aeruginosa, ATCCBAA2111, P. aeruginosa ATCC BAA-2111; for MBC: read-out: MBC; for MIC: read-out: MIC
Text: as §4, §5
(MDRB). […]

[17] = system: S. aureus ATCC 33591; test: MIC/MBC against MDRB, paper disk diffusion; assay type: cell-based; details: Staphylococcus aureus, ATCC33591, S. aureus ATCC 33591; for MBC: read-out: MBC; for MIC: read-out: MIC
Text: as §4, §5
(MDRB). […]

[18] = system: S. aureus ATCC 43300 (MRSA); test: MIC/MBC against MDRB, paper disk diffusion; assay type: cell-based; details: Staphylococcus aureus, S. aureus ATCC 43300; for MBC: read-out: MBC; for MIC: read-out: MIC
Text: as §4, §5
(MDRB). […]

[19] = biological target: S. aureus DNA Gyrase (Staphylococcus aureus, UniProt P0A0K8+P20831); test: DNA gyrase enzyme assay; assay type: biochemical; details: Mean ± SEM
[20] = biological target: B. subtilis DNA Gyrase (Bacillus subtilis, UniProt P05652+P05653); test: DNA gyrase enzyme assay; assay type: biochemical; details: Mean ± SEM
[21] = Bacillus subtilis, read-out: MIC

B. subtilis DNA Gyrase, sequence (P05652 whole entry): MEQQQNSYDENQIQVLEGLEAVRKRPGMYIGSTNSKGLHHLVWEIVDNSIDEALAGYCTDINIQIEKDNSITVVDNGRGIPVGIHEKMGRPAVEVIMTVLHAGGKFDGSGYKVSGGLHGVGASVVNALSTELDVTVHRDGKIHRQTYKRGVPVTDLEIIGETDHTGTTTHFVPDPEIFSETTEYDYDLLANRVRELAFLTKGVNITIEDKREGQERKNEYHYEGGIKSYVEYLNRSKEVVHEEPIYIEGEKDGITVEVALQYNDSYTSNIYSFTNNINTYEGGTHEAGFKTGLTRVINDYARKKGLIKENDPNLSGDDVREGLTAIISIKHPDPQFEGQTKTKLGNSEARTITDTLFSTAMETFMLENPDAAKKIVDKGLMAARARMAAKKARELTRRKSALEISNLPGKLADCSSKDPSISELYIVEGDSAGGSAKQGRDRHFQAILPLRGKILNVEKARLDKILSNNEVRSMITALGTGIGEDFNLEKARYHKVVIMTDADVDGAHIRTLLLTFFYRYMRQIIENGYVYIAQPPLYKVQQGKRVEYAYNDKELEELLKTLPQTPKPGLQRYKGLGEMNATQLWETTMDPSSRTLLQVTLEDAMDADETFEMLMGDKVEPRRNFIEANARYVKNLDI
B. subtilis DNA Gyrase, sequence (P05653 whole entry): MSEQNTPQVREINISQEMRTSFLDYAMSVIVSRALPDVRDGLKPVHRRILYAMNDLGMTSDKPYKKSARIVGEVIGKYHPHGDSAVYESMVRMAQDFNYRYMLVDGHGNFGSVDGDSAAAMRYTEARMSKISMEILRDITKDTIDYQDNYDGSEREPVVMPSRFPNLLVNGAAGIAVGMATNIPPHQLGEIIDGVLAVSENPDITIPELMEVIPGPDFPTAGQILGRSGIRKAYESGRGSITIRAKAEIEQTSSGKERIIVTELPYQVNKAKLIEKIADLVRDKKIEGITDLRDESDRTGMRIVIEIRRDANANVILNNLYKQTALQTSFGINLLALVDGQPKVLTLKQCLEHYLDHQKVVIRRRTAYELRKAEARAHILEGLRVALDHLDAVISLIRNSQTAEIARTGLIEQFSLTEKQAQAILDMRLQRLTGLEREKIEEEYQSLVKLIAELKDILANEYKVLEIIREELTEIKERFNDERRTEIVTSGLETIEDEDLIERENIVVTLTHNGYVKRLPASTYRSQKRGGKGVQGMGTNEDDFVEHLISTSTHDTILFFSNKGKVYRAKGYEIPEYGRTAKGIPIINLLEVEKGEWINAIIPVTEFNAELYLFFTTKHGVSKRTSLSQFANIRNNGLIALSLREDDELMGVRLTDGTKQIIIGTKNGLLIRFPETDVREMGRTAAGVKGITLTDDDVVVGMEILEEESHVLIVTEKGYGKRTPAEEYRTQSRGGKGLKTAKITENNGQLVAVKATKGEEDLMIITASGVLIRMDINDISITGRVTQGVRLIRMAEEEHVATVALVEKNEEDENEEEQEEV
S. aureus DNA Gyrase, sequence (P20831 whole entry): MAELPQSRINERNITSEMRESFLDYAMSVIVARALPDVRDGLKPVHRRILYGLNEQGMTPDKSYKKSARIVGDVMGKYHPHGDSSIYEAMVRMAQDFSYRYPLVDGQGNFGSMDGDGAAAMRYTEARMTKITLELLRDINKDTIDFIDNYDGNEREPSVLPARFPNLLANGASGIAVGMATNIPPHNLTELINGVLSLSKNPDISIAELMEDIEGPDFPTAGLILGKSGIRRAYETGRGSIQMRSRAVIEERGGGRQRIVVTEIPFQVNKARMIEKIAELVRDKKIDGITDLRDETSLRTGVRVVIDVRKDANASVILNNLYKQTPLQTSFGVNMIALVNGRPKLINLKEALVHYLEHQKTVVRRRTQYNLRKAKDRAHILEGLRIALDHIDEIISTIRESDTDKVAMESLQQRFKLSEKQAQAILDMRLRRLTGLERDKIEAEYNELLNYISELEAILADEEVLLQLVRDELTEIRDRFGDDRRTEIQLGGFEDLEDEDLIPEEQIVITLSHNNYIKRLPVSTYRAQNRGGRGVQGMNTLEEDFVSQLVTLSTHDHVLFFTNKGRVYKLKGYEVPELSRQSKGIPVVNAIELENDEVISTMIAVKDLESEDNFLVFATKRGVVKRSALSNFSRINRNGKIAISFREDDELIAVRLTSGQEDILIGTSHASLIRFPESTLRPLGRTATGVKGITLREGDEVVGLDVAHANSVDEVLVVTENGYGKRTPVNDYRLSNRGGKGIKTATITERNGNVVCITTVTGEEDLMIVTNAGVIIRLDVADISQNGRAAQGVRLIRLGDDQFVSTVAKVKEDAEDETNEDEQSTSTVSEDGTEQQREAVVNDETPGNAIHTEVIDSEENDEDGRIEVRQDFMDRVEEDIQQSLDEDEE
S. aureus DNA Gyrase, sequence (P0A0K8 whole entry): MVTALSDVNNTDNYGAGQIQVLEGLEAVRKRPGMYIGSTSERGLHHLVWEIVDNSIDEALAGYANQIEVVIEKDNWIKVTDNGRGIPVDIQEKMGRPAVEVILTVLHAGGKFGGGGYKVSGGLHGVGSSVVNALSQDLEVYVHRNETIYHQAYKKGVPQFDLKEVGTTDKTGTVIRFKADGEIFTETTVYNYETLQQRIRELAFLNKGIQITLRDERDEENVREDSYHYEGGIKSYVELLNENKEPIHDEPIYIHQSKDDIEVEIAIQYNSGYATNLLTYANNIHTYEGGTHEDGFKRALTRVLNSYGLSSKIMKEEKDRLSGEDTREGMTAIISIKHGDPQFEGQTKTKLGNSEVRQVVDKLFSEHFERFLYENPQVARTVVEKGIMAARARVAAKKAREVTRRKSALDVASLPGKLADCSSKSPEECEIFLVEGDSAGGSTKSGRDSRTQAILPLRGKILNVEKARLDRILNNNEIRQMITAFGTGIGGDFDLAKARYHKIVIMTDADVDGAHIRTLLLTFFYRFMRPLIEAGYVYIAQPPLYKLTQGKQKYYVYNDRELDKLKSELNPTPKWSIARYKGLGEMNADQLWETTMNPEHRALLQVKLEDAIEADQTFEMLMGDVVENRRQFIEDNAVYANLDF

**Q.** How did the zone of inhibition at 500 µg/mL [1] turn out when `COc1ccc(Nc2n[nH]c(N=Cc3ccc(N4CCCCC4)cc3)c2C(N)=O)cc1` [8a, 3-(p-Methoxyphenylamino)-5-(4-(piperidin-1-yl)benzylideneamino)-1H-pyrazole-4-carboxamide] was run?
**A.** 27 ± 0.5 mm

**Q.** And the zone of inhibition at 500 µg/mL [2]?
**A.** 25 ± 0.33 mm

**Q.** What about the zone of inhibition at 500 µg/mL [3] of the same molecule?
**A.** 23 ± 0.14 mm

**Q.** And the zone of inhibition at 500 µg/mL [4]?
**A.** 25 ± 0.85 mm

**Q.** What about the MIC [5] of the same molecule?
**A.** 1.95 µg/mL (≈ 4.66 µM)

**Q.** And the MBC ([5]; Bacillus subtilis)?
**A.** 3.9 µg/mL (≈ 9.32 µM)

**Q.** What about the MIC [5, 21] of the same molecule?
**A.** 1.92 µg/mL (≈ 4.59 µM)

**Q.** What about the MBC [6] of the same molecule?
**A.** 6.63 µg/mL (≈ 15.8 µM)

**Q.** And the MIC [6]?
**A.** 3.9 µg/mL (≈ 9.32 µM)

**Q.** And the “Fold more than Tetracycline (MIC)” value [7]?
**A.** 16 fold

**Q.** And the MBC [7]?
**A.** 1.94 µg/mL (≈ 4.64 µM)

**Q.** What about the MIC [7] of the same molecule?
**A.** 0.97 µg/mL (≈ 2.32 µM)

**Q.** And the “Fold more than Tetracycline (MIC)” value [8]?
**A.** 11.2 fold

**Q.** What about the MBC [8] of the same molecule?
**A.** 10.6 µg/mL (≈ 25.3 µM)

**Q.** What about the MIC [8] of the same molecule?
**A.** 5.57 µg/mL (≈ 13.3 µM)

**Q.** And the MIC [9]?
**A.** 7.81 µg/mL (≈ 18.7 µM)

**Q.** What about the MBC [9] of the same molecule?
**A.** 12.5 µg/mL (≈ 29.8 µM)

**Q.** What about the MBC [10] of the same molecule?
**A.** 5.57 µg/mL (≈ 13.3 µM)

**Q.** And the MIC [10]?
**A.** 5.57 µg/mL (≈ 13.3 µM)

**Q.** What about the IC50 [11] of the same molecule?
**A.** 2.25 ± 0.85 µM

**Q.** And the IC50 [12]?
**A.** 1.98 ± 1.55 µM

**Q.** And the “Fold relative to doxorubicin (IC50)” value [12]?
**A.** 0.979 fold

**Q.** What about the “Mean Diameter of Inhibition Zone against MDRB” value [13] of the same molecule?
**A.** 26 ± 0.15 mm

**Q.** And the “Mean Diameter of Inhibition Zone against MDRB” value [14]?
**A.** 24 ± 0.12 mm

**Q.** What about the MBC [15] of the same molecule?
**A.** 3.9 µg/mL (≈ 9.32 µM)

**Q.** What about the MIC [15] of the same molecule?
**A.** 1.95 µg/mL (≈ 4.66 µM)

**Q.** And the MBC [16]?
**A.** 7.8 µg/mL (≈ 18.6 µM)

**Q.** And the MIC [16]?
**A.** 3.9 µg/mL (≈ 9.32 µM)

**Q.** And the MBC [17]?
**A.** 7.8 µg/mL (≈ 18.6 µM)

**Q.** And the MIC [17]?
**A.** 3.9 µg/mL (≈ 9.32 µM)

**Q.** What about the MBC [18] of the same molecule?
**A.** 3.9 µg/mL (≈ 9.32 µM)

**Q.** What about the MIC [18] of the same molecule?
**A.** 1.95 µg/mL (≈ 4.66 µM)

**Q.** What about the IC50 [19] of the same molecule?
**A.** 7.69 ± 0.23 µM

**Q.** And the IC50 [20]?
**A.** 15.3 ± 0.5 µM

**Q.** How did the zone of inhibition at 500 µg/mL [1] turn out when `COc1ccc(Nc2n[nH]c(N=Cc3cc(OC)c(OC)c(OC)c3)c2C(=O)Nc2ccccc2)cc1` [9b, 3-(p-Methoxyphenylamino)-N-phenyl-5-(3,4,5-trimethoxybenzylideneamino)-1H-pyrazole-4-carboxamide] was run?
**A.** 25 ± 0.87 mm

**Q.** And the zone of inhibition at 500 µg/mL [2]?
**A.** 24 ± 0.35 mm

**Q.** And the zone of inhibition at 500 µg/mL [3]?
**A.** 23 ± 0.2 mm

**Q.** What about the zone of inhibition at 500 µg/mL [4] of the same molecule?
**A.** 21 ± 0.55 mm

**Q.** What about the “Fold more potent than Tetracycline (MIC)” value [5] of the same molecule?
**A.** 6 fold

**Q.** And the MBC ([5]; Bacillus subtilis)?
**A.** 9.2 µg/mL (≈ 18.3 µM)

**Q.** What about the MIC [5, 21] of the same molecule?
**A.** 4.5 µg/mL (≈ 8.97 µM)

**Q.** And the MBC [6]?
**A.** 7.41 µg/mL (≈ 14.8 µM)

**Q.** And the MIC [6]?
**A.** 3.9 µg/mL (≈ 7.78 µM)

**Q.** What about the MBC [7] of the same molecule?
**A.** 14.1 µg/mL (≈ 28 µM)

**Q.** And the MIC [7]?
**A.** 7.81 µg/mL (≈ 15.6 µM)

**Q.** What about the MBC [8] of the same molecule?
**A.** 31.2 µg/mL (≈ 62.3 µM)

**Q.** And the MIC [8]?
**A.** 15.6 µg/mL (≈ 31.1 µM)

**Q.** What about the MIC [9] of the same molecule?
**A.** 5.57 µg/mL (≈ 11.1 µM)

**Q.** What about the MBC [9] of the same molecule?
**A.** 10.6 µg/mL (≈ 21.1 µM)

**Q.** What about the MBC [10] of the same molecule?
**A.** 15.6 µg/mL (≈ 31.1 µM)

**Q.** And the MIC [10]?
**A.** 7.81 µg/mL (≈ 15.6 µM)

**Q.** What about the IC50 [11] of the same molecule?
**A.** 1.92 ± 0.49 µM

**Q.** What about the IC50 [12] of the same molecule?
**A.** 2.21 ± 0.36 µM

**Q.** What about the “Fold relative to doxorubicin (IC50)” value [12] of the same molecule?
**A.** 0.877 fold

**Q.** And the “Mean Diameter of Inhibition Zone against MDRB” value [13]?
**A.** 24 ± 0.65 mm

**Q.** And the “Mean Diameter of Inhibition Zone against MDRB” value [14]?
**A.** 25 ± 0.12 mm

**Q.** What about the MBC [15] of the same molecule?
**A.** 11.9 µg/mL (≈ 23.7 µM)

**Q.** What about the MIC [15] of the same molecule?
**A.** 6.25 µg/mL (≈ 12.5 µM)

**Q.** And the MBC [16]?
**A.** 9.88 µg/mL (≈ 19.7 µM)

**Q.** What about the MIC [16] of the same molecule?
**A.** 5.2 µg/mL (≈ 10.4 µM)

**Q.** What about the MBC [17] of the same molecule?
**A.** 3.31 µg/mL (≈ 6.6 µM)

**Q.** And the MIC [17]?
**A.** 1.95 µg/mL (≈ 3.89 µM)

**Q.** And the MBC [18]?
**A.** 4.5 µg/mL (≈ 8.97 µM)

**Q.** And the MIC [18]?
**A.** 2.5 µg/mL (≈ 4.98 µM)

**Q.** What about the IC50 [19] of the same molecule?
**A.** 10.5 ± 0.55 µM

**Q.** And the IC50 [20]?
**A.** 14.2 ± 0.42 µM
